What was measured:
Format in all cases: in vivo
hippocampus GFAP = experiment: Number of hippocampus astrocytes with GFAP positive expression in MPTP Parkinson's disease model mouse (immunohistochemistry); conditions: hippocampus, MPTP Parkinson's disease model mouse, immunohistochemistry
Protocol: (§1) Neurotoxins can be used to establish PD animal models. Currently, 1-methyl-4-phenyl-1,2,3,6-tetrahydropyridine (MPTP) is the sole synthetic toxin which is recognized to induce PD symptoms in human and non-human primates and in mice. Using MPTP subacute modeling method, C57BL/6J male mice were intraperitoneally injected with MPTP 30 mg/kg, once a day for 5 consecutive days. The experiment animals were divided into blank control group, MPTP model group, and compound treatment group. For the […] compound treatment group, the compound was administrated by gavage for 21 consecutive days after the completion of modeling; for the MPTP model group, the normal saline was administrated by gavage for 21 consecutive days after the completion of modeling; and for the blank control group, the normal saline was first intraperitoneally injected for 5 days, and then administrated by gavage for 21 days.
(§2) Neuron-glial cell network homeostasis disorder is an important factor for the selective and progressive death of substantia nigra dopaminergic neurons in PD. In the neurotoxic effect of MPTP, the excessive activations of microglial cells and astrocytes produce a variety of inflammatory cytokines and reactive oxygen species (ROS). These inflammatory factors and ROS amplify their respective toxicities and mediate malignant feedback loop, causing a cascade inflammation response and aggravating the pathological process of PD. CD11b and GFAP are the marker proteins for activations of microglial cells and astrocytes, respectively. Therefore, the effect of the target compounds on the activations of the microglial cells and astrocytes in the substantia nigra, hippocampus, and midbrain areas of MPTP-induced PD mice can be investigated, to explore the mechanism of the anti-PD effect of the target compounds by inhibiting the neuroinflammation.
(§3) Half of experiment mice in each group were taken to separate the midbrain after perfusion and fixation. The tissue was trimmed, and the hippocampus area was taken to prepare paraffin sections. The GFAP immunohistochemical staining was performed for the statistics of the change in the number of astrocytes with GFAP positive expression. The experiment included blank control group, MPTP model group, positive control group (caffeic acid phenethyl ester, CAPE), prototype control group (styryl sulfone compounds 3B, 3C, 3D, and 3G, whose structures are shown as above), and target compound group.

HO-1 = experiment: Midbrain HO-1 expression in MPTP Parkinson's disease model mouse (western blot); conditions: midbrain, MPTP Parkinson's disease model mouse, western blot
Protocol: as §1
Oxidative stress is an important pathogenic mechanism of PD. Dopaminergic neurons are more sensitive to oxidative stress and are more susceptible to oxidative stress damage. Heme oxygenase (HO-1), a phase II enzyme, is also a well-known antioxidase. It plays an important protective role by catalyzing the conversion of free radicals into non-toxic products and increasing their water solubility to facilitate the elimination of free radicals, and maintain the redox balance in the body. It plays an important role in the process of protecting cells against oxidative stress damage. The activation of p38 protein phosphorylation has a negative regulatory effect on phase II enzymes. […] Using HO-1 as an indicator, the inhibitory effect of the target compounds on MPTP-induced oxidative stress damage in PD mice can be investigated.
HO-1 is expressed in astrocytes, microglial cells, and neurons. The total proteins of the midbrain tissue of mice in each experiment group were extracted, to determine the expression of phase II enzyme HO-1 in the midbrain of mice by western blot using GAPDH as the internal reference. The experiment included blank control group, MPTP model group, positive control group (caffeic acid phenethyl ester, CAPE), prototype control group (styryl sulfone compounds 3B, 3C, 3D, and 3G, whose structures are shown as above), and target compound group.

substantia nigra p-α-s = experiment: Substantia nigra p-α-s protein expression in MPTP Parkinson's disease model mouse (immunofluorescence); conditions: percentage of mean intensity of blank control group, gavage 21 days after MPTP modeling
Protocol: as §1
Alpha-synuclein is an “unfolded protein” in its natural state. It exists in a monomeric form, and participates in the physiological functions such as the release of neurotransmitters, the establishment of synaptic junctions, and the regulation of synaptic plasticity. Under pathological conditions, more than 90% of alpha-synuclein is phosphorylated at serine of position 129 and converted into phosphorylated alpha-synuclein (p-α-s), thereby forming Lewy bodies. The formation of Lewy bodies is one of the main pathological manifestations and pathological mechanisms for Parkinson's disease, and plays an important role in the formation and development of PD. The detection of the p-α-s expression in the midbrain and substantia nigra of PD model mice can evaluate the neuroprotective activity of the compound.
as §3, with “substantia nigra-striatum” for “hippocampus”, “p-α-s immunofluorescence” for “GFAP immunohistochemical”, “performed” for “performed for the statistics of the change”, “brain sections” for “number”, “mice in each group. […]” for “astrocytes with GFAP positive expression.”

substantia nigra GFAP = experiment: Number of substantia nigra astrocytes with GFAP positive expression in MPTP Parkinson's disease model mouse (immunohistochemistry); conditions: substantia nigra, MPTP Parkinson's disease model mouse, immunohistochemistry
Protocol: as §1, §2
as §3, with “substantia nigra” for “hippocampus”

midbrain TH = experiment: Midbrain TH expression in MPTP Parkinson's disease model mouse (western-blotting); conditions: midbrain total protein, GAPDH internal reference, gavage 21 days after MPTP modeling
Protocol: as §1
The main cause of PD lies in the pathological changes in the substantia nigra-striatum projection system of the brain and the progressive degeneration and loss of dopaminergic neurons. Tyrosine hydroxylase (TH) is the first enzyme in the biosynthesis of catecholamine neurotransmitters, as well as the first rate-limiting enzyme in the dopamine synthesis. It plays an important role in the synthesis and metabolism of the neurotransmitter DA. The TH in PD animal models and patients has a wide range of abnormal changes, from the gene expression to the enzyme protein content and enzyme activity. The detection of the TH expression in the midbrain and substantia nigra of PD model mice can be used to evaluate the neuroprotective activity of the compound.
Half of experiment mice in each group were taken to extract the total midbrain protein, and the change in the midbrain TH was determined by western-blotting using GAPDH as the internal reference. The experiment included blank control group, MPTP model group, positive control group (caffeic acid phenethyl ester, CAPE), prototype control group (styryl sulfone compounds 3B, 3C, 3D, and 3G, whose structures are shown as above), and target compound group.

Compound | Positive cell number (astrocytes with GFAP positive expression) (hippocampus GFAP) | Expression (HO-1/GAPDH) (HO-1) | Expression (Immunofluorescence intensity %) (substantia nigra p-α-s) | Positive cell number (astrocytes with GFAP positive expression) (substantia nigra GFAP) | Expression (TH/GAPDH) (midbrain TH)
COc1ccc(CC(=O)Oc2ccc(C(N)CS(=O)(=O)/C=C/c3ccc(OC(C)(C)C)c(OC(=O)N(C)c4ccccc4)c3)cc2)cc1 (stereo not drawn) [Compound P1-3, (E)-4-{1-amino-2-[4-t-butoxy-3-(N-methyl-N-phenylcarbamoyloxy)styrylsulfonyl]ethyl}phenyl-2-(4-methoxyphenyl)acetate] | 74 ± 3 | 0.77 ± 0.10 | 48.33 ± 5.37% | 69 ± 5 | 0.77 ± 0.03
COc1ccc(CC(=O)Oc2ccc(/C(C)=C/S(=O)(=O)/C=C/c3ccc(OC(=O)N(C)C)c(O[Si](C)(C)CCl)c3)cc2)cc1 [Compound P1-7, 4-{(E)-1-[(E)-3-(chloromethyldimethylsiloxy)-4-(N,N-dimethylcarbamoyloxy)styrylsulfonyl]prop-1-en-2-yl}phenyl-2-(4-methoxyphenyl) acetate] | 49 ± 4 | 0.71 ± 0.09 | 61.28 ± 5.36% | 73 ± 5 | 0.88 ± 0.06
CC[Si](CC)(Oc1ccc(C(Cl)S(=O)(=O)/C=C/c2ccc(OC(=O)N3CC(C)OC(C)C3)c(OC(=O)c3cccc(Cl)c3OC)c2)cc1)c1ccccc1 (stereo not drawn) [Compound R1-5, (E)-4-{2-[4-(diethylphenylsiloxy)phenylchloromesyl]ethenyl}-2-(3-chloro-2-methoxybenzoyloxy)phenyl-2,6-dimethylmorpholine-4-carboxylate] | 80 ± 2 | 0.87 ± 0.06 | 125.28 ± 9.35% | 90 ± 6 | 0.94 ± 0.03
Cc1ccc(S(=O)(=O)Oc2ccc(CS(=O)(=O)/C=C/c3ccc(OS(=O)(=O)c4ccc(C)cc4)c(OC(=O)N(C)S(=O)(=O)c4ccc(C)cc4)c3)cc2)cc1 [Compound S6-6, (E)-2-(N-methyl-N-p-tosylcarbamoyloxy)-4-{2-[(4-p-tosyloxyphenyl)mesyl]ethenyl}phenyl p-toluenesulfonate] | 58 ± 2 | 1.08 ± 0.11 | 72.57 ± 6.63% | 78 ± 4 | 1.07 ± 0.06
O=C(/C=C/c1ccc(O)c(O)c1)OCCc1ccccc1 [Positive control group, caffeic acid phenethyl ester, reference compound] | 86 ± 2 | 0.52 ± 0.07 | 202.07 ± 8.34% | 132 ± 8 | 0.85 ± 0.04
(E)-2-[(methylamino)methoxy]-4-{2-[1-(4′-nitro-[1,1′-biphenyl]-4-yl)ethylsulfonyl]ethenyl}phenylcarbamate [Compound M1-3] | 57 ± 3 | 0.80 ± 0.09 | 79.17 ± 5.10% | 110 ± 5 | 0.84 ± 0.06
